Assay results as given in article PMC5713897 (Investigative Ophthalmology & Visual Science, 2017).
In brackets after ≈: the same amount, converted by molar mass. Where two headings read alike, the source gives them in different places.

Legend:
[1] = cited from earlier work
[2] = test system: Human Tenon fibroblast cells (HTFs)
Method: Human Tenon fibroblast cells (HTFs) were maintained in fibroblast culture medium composed of Dulbecco's modified Eagle's medium (DMEM) supplemented with 10% (vol/vol) fetal bovine serum (FBS), 2 mM L-glutamine, 100 IU/mL penicillin, and 100 g/mL streptomycin (all from Gibco Life Technologies, Paisley, Scotland, UK) at 37°C with 5% (vol/vol) CO2 in air. The medium was changed every 3 to 4 days until cells reached confluence. The cells were passaged at a ratio of 1:4. Cultures were used between passages 3 and 10 for the gel contraction experiments.[33]
HTF cells (7 × 10^4 cells/mL) were seeded in collagen type-1 lattice (150 μL) in a Matteck dish. […] The drug solutions were added to the lattice (2 mL) at each individual concentration and incubated at 37°C. The gels were imaged daily from day 0 to day 7, and the percent contraction was calculated based on the decrease in gel area using ImageJ software (http://imagej.nih.gov/ij/; provided in the public domain by the National Institutes of Health, Bethesda, MD, USA). […] Each formulation was tested in triplicate.

[3] = Phase solubility study of ilomastat with 2-hydroxypropyl-β-cyclodextrin (HPLC); assay type: physicochemical
Method: The mixture was left to stir overnight.
A flow rate of 1 mL/min was used with 0.1% trifluoroacetic acid in water and acetonitrile as eluents A and B, respectively, with a linear gradient from 80% A to 70% B in 17 minutes. The detection wavelength was 280 nm.
The mixture was left to stir overnight. Benzalkonium chloride (BAC) (0.8 mg) was then added to the mixture, and the mixture was filtered (0.22 μm PES).

[4] = weak hydroxamic acid; cited from earlier work

SMILES | water solubility ([1]; water) | inhibition of collagen gel contraction (in words) ([2]; 7-day incubation) | gel contraction ([2]; day 7, 0.01 μM ilomastat, HTFs in collagen, n = 3) | solubility ([3]; PBS, pH 7.4, read-out: aqueous solubility in PBS (pH 7.4)) | solubility ([3]; water, read-out: aqueous solubility in water) | pKa [4] | solubility in balanced salt solution ([1]; balanced salt solution, 35.5°C)
CC(O)COC[C@H]1O[C@@H]2O[C@H]3[C@H](O)[C@@H](O)[C@@H](O[C@H]4[C@H](O)[C@@H](O)[C@@H](O[C@H]5[C@H](O)[C@@H](O)[C@@H](O[C@H]6[C@H](O)[C@@H](O)[C@@H](O[C@H]7[C@H](O)[C@@H](O)[C@@H](O[C@H]8[C@H](O)[C@@H](O)[C@@H](O[C@H]1[C@H](O)[C@H]2O)O[C@@H]8COCC(C)O)O[C@@H]7COCC(C)O)O[C@@H]6COCC(C)O)O[C@@H]5COCC(C)O)O[C@@H]4COCC(C)O)O[C@@H]3COCC(C)O (stereo partly drawn) [2-Hydroxypropyl-β-cyclodextrin] | 450000 µg/mL (≈ 292000 µM) |  |  |  |  |  | 
CNC(=O)[C@H](Cc1c[nH]c2ccccc12)NC(=O)[C@@H](CC(=O)NO)CC(C)C [ilomastat] |  | significantly inhibited collagen gel contraction | 51.79% ± 2.05 | 160 µg/mL (≈ 412 µM) | 140 µg/mL (≈ 360 µM) | 8.9 | 161 µg/mL
